# Paper PMC11722135, “Structure- and Ligand-Based Virtual Screening for Identification of Novel TRPV4 Antagonists” (Molecules, 2024)
# Entries after “also recorded” stand apart in the source; their conditions may differ.
# Assays:
# TRPV4 = test system: TRPV4; set-up: method as in doi:10.1101/2020.10.13.334797; conditions: read-out: EC50 (TRPV4 agonist); cited from earlier work
# human TRPV4 [1] = target: T1, human TRPV4 (Homo sapiens, UniProt Q9HBA0); assay: FLIPRtetra calcium assay, second addition (antagonism of 500 nM GSK1016790A); format: cell-based; conditions: for Inhibitory effect / activity on hTRPV4 in vitro: natural stilbenoids, 0.05–37.5 µM concentration series; for IC50: HEK-293 cells transiently transfected with human TRPV4, 500 nM GSK1016790A, 37 °C, read-out: IC50 (inhibition of response evoked by GSK1016790A)
# T1 construct: host or cells: HEK-293 cells (ATCC), transient transfection
# T1 sequence (Q9HBA0 whole entry): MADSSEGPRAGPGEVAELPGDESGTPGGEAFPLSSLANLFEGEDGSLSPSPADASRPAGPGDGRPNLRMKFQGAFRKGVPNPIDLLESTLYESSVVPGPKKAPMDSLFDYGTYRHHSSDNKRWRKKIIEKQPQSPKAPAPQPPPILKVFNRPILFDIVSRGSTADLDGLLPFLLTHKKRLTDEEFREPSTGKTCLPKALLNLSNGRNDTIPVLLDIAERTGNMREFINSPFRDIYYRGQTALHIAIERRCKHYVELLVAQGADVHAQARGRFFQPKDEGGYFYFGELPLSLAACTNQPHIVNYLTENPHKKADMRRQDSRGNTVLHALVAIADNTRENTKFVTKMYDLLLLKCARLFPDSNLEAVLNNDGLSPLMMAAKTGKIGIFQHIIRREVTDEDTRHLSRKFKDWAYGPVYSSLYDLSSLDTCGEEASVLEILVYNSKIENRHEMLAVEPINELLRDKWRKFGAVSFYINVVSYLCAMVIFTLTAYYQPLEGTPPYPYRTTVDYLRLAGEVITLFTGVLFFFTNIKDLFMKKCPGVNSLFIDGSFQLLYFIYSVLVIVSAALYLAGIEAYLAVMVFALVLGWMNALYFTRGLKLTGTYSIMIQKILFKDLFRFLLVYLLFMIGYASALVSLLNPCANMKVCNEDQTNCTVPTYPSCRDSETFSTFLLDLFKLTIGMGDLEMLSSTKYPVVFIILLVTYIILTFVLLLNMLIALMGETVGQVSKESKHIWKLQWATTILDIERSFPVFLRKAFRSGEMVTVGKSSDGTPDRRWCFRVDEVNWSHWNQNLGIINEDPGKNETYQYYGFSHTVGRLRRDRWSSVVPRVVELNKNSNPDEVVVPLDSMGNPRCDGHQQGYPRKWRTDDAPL
# Experimental: (§1) The TRPV4 pharmacology of the hit compounds (Enamine) and the natural stilbenoids (purity > 95%, extracted at the Laboratory of Organic Chemistry at Åbo Akademi University) was studied with the fluorometric imaging plate reader FLIPR^tetra (Molecular Devices, San Jose, CA, USA) using a dual addition protocol, in which a compound’s agonism is initially measured and then, subsequently, a reference agonist is added to assess the compound’s possible antagonism. The studies were conducted in a 96-well plate format using HEK-293 cells (ATCC) that were transiently transfected with the human TRPV4 plasmid (Origene, Rockville, MD, USA, cat. SC309684). HEK cells were used as they are easy to transfect, and TRPV4 overexpressing cells provide a robust system to study TRPV4-mediated calcium responses with a wide signal window. In the experiments, the cells were loaded with a Calcium 4 Assay reagent (Molecular Devices) to enable intracellular calcium measurements. The study protocol was initiated by dispensing a concentration series (0.05–37.5 µM) of the test compounds on cells by FLIPR^tetra, and the agonism was recorded for 10 min followed by the second addition, 500 nM of the known TRPV4 agonist GSK1016790A (Sigma-Aldrich, St. Louis, […], USA, cat. G0798). The antagonism of the test compounds was measured for 2 min. All the experiments were performed at 37 °C. The excitation and emission were measured at wavelengths of 470–495 nm and 515–575 nm, respectively.
# (§2) In compound agonism and antagonism analysis, the fluorescence values were normalized by subtracting the baseline value from the maximum value of the first 10 min and of the last 2 min measured for each well, respectively. EC50 and IC50 values were determined from dose–response curves using a nonlinear regression curve fit by Prism (version 9.1.0). Dose–response curves were constructed from a mean of 3 separate wells at each compound concentration.
# human TRPV4 [2] = target: T1, human TRPV4; assay: FLIPRtetra calcium assay, first addition (agonism); format: cell-based
# Experimental: as §1, §2
compound,measurement,setting,value
"CCCCCCCCCC(=O)O[C@@H]1[C@@H](C)[C@@]2(O)[C@@H](C=C(CO)C[C@@]3(O)C(=O)C(C)=C[C@@H]23)[C@@H]2C(C)(C)[C@]12OC(=O)CCCCCCCCC [4α-PDD, 4α-phorbol 12,13-didecanoate]",EC50,TRPV4,0.2 µM
"OC[C@H]1O[C@@H](Oc2cc(O)cc(/C=C/c3ccc(O)c(O)c3)c2)[C@H](O)[C@@H](O)[C@@H]1O [Astringin, astringin]",Inhibitory effect / activity on hTRPV4 in vitro,human TRPV4 [1],inactive
CC(C)C[C@H](NC(=O)c1cc2ccccc2s1)C(=O)N1CCN(C(=O)[C@H](CO)NS(=O)(=O)c2ccc(Cl)cc2Cl)CC1 [GSK1016790A],EC50,TRPV4,0.002 µM
"COc1cc(/C=C/c2cc(O)cc(O[C@@H]3O[C@H](CO)[C@@H](O)[C@H](O)[C@H]3O)c2)ccc1O [Isorhapontin, isorhapontin]",Inhibitory effect / activity on hTRPV4 in vitro,human TRPV4 [1],inactive
O=C(CC(NC(=O)c1ccccc1Cl)c1ccccc1)Nc1ccc(N2CCCC2)nc1 (stereo not drawn) [Z221487176],IC50,human TRPV4 [1],> 30 µM
O=C(CC1C(=O)Nc2ccccc2N1C(=O)/C=C/c1ccccc1)Nc1ccc(F)cc1 (stereo not drawn) [Z1213735368],Agonistic activity on the channel,human TRPV4 [2]; 10 µM,without any agonistic activity
same,Increase in the fluorescence signal / [Ca2+] (agonism),human TRPV4 [2]; high concentration (30 µM),evoked a slow increase in the fluorescence signal; also recorded: gradually raised [Ca^2+] levels
same,Inhibition of the response evoked by GSK1016790A,"human TRPV4 [1]; 10 µM, 500 nM GSK1016790A",inhibited the response evoked by GSK1016790A; also recorded: inhibited the response induced by GSK1016790A
same,Inhibitory effect on hTRPV4 / reversal of the effect of GSK1016790A,"human TRPV4 [1]; 30 µM (high concentration), 500 nM GSK1016790A",reverse the effect of GSK1016790A
same,IC50,human TRPV4 [1],8 µM
CN1C(=O)c2ccc(NCc3nc(-c4c(F)cccc4F)cs3)cc2C1=O [Z1728742868],EC50,"human TRPV4 [2]; HEK-293 cells transiently transfected with human TRPV4, 37 °C, read-out: EC50 (increase in intracellular calcium)",14 µM
same,Inhibition of the effect of GSK1016790A,"human TRPV4 [1]; 37.5 µM (highest test concentration), 500 nM GSK1016790A",inhibited the effect of GSK1016790A; also recorded: effectively inhibited the response
